Experimental data reported in patent publication US6372739B1, “Compounds and methods for modulation of estrogen receptors” (Signal Pharmaceuticals, Inc., priority 1998, dated 2002).
pIC50, pKi: −log10 of the molar value. Counter-ions that a name gives are not always drawn. Like-named read-outs stand apart in the source and are kept apart here. Each block holds one compound with its values, some of them ahead of it.

Legend:
[1] = 28-day uterine bioassay in ovariectomized rats; conditions: rat, in vivo
Procedure: All three componds were administered daily by s.c. injection. Estrogen prevented the uterine weight loss caused by ovariectomy by increasing the uterine weight by 550%. […] Raloxifene.HCl caused about a 70% increase in uterine weight which has been previously reported (Grese et al., supra; Ashby et al., supra). […] Thus, this compound has significant potential for the prevention and/or treatment of cancer and osteoporosis, as well as cardiovascular diseases and neurodegenerative diseases such as Alzheimer's disease.

[2] = 3-day immature rat uterine bioassay; conditions: s.c.
human recombinant ER-β = human recombinant ER-β (Homo sapiens, UniProt Q92731); assay: Solid phase ER binding assay (3H-estradiol competition), ER-β
Chain of human recombinant ER-β (Q92731 whole entry): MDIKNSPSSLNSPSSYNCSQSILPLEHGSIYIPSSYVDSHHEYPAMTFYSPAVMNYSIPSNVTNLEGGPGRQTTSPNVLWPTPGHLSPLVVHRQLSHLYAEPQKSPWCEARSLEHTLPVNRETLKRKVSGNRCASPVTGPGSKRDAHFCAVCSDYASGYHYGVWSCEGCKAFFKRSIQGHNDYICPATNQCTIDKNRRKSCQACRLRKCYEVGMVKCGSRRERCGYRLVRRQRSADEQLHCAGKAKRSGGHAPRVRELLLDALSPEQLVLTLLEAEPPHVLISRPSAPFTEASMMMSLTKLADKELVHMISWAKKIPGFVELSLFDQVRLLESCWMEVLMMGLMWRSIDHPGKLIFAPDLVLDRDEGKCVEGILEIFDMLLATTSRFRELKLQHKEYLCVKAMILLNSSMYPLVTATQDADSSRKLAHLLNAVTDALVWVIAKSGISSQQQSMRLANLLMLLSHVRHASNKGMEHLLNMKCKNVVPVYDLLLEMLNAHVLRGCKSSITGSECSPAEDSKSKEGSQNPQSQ

IL-6 = assay: Human bone cell co-culture system, IL-6 production; assay type: cell-based
Procedure: The generation of osteoblastic cells from normal adult femoral travecular bone from patients without evidence of metabolic bone disease was carried out as previously described (Kung Sutherland et al., Osteoporosis International 5:334-343, 1995; Wong et al., J Bone Miner 5:803-813, 1990). Bone fragments were cleaned of adherent tissue and blood and cultured for 4 weeks in medium containing Ham's F12 supplemented with 28 mM HEPES, pH 7.4, 10% FCS, 1.1 mM CaCl2, 2 mM glutamine, and 1% antibiotic-antimycotic agent. Upon confluency, the cells were harvested and immortalized using a retroviral vector (pLXSN) containing the neomycin resistance gene and the human papillomaviral (HPV18) E6 and E7 concogenes (International Journal of Oncology 6:167-174, 1995). The immortalized osteoblastic cells were selected in medium containing G418 (600 μg/ml).
The human U937 moncytic cell line (cloned from the commercially available cells by serial dilution) was maintained in RPMI 1640 medium containing 10% FCS and 1% antibiotic-antimycotic agent.
The co-culture system was established as follows. Human osteoblastic cells were plated in 96-well dishes at a density of 5×10^3 cells/well. U937 cells in RPMI medium (5×10^4 cells/well) were layered over the osteoblasts. The formation of osteoclast-like cells was induced with 100 nM PMA. […]

human recombinant ER-α = molecular target: T1, human recombinant ER-α (Homo sapiens, UniProt P03372); assay: Solid phase ER binding assay (3H-estradiol competition), ER-α; conditions: HCl salt; similar to estradiol
T1 sequence (P03372 1-595): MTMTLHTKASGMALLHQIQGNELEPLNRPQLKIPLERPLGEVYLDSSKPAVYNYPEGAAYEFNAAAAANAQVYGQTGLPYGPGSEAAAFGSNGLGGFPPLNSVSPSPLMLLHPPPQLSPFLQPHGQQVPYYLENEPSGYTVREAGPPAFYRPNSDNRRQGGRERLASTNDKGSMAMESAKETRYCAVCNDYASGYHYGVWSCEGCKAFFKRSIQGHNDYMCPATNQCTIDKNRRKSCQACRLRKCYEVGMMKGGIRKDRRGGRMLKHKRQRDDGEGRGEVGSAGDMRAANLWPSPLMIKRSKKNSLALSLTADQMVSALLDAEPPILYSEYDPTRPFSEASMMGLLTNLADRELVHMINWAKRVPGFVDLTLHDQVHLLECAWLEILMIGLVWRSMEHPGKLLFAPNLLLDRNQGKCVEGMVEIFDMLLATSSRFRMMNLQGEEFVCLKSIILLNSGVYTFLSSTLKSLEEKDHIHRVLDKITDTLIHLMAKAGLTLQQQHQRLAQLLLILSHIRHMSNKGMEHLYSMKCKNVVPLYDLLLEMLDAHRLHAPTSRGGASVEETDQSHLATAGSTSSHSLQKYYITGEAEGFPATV

GM-CSF = assay: Human bone cell co-culture system, GM-CSF production; assay type: cell-based; conditions: co-culture system of Example 8
Procedure: The co-culture system was established as follows. Human osteoblastic cells were plated in 96-well dishes at a density of 5×10^3 cells/well. U937 cells in RPMI medium (5×10^4 cells/well) were layered over the osteoblasts. The formation of osteoclast-like cells was induced with 100 nM PMA. To determine the effects of compounds or the neutralizing antibodies to IL-6 (Sigma) and GM-CSF (Pharmingen) on the formation of osteoclast-like cells, the compounds or the antibodies were added 30 minutes prior to the addition of PMA. The cultures were stopped after 96 hrs and processed for histochemical or immunohistochemical analyses.

SMILES: O=c1oc2cc(O)ccc2c(Cc2ccc(OCCN3CCCCC3)cc2)c1-c1ccccc1 (as salt: HCl) [Compound No. 1, 3-Phenyl-4-[4-(2-{piperidin-1-yl})ethoxy]-benzyl-7-hydroxycoumarin]
melting point: 160 to 161 °C

SMILES: O=c1oc2cc(O)ccc2c(Cc2ccc(OCCN3CCCCC3)cc2)c1-c1ccccc1 [Compound No. 1, 3-Phenyl-4-[4-(2-{piperidin-1-yl})ethoxy]-benzyl-7-hydroxycoumarin]
increase in uterine weight ([1]; female, sc, 28 day): ~40%
uterine liability [1]: does not exhibit significant uterine liability
increase in uterine weight [2]: ~30%
shape of dose response, uterine weight [2]: bell-shaped dose response
binding affinity to ER-β (in words) (human recombinant ER-β; HCl salt, similar to estradiol): high affinity
pKi (human recombinant ER-β; competition with 30 nM 3H-estradiol, room temperature, 1 hour, average of at least 3 experiments, read-out: Solid Phase ER Binding Ki, ER-β): 8.14
pIC50 (IL-6; U-937, human osteoblast/U937 co-culture, PMA induced, read-out: IC50 with respect to IL-6): 8.00
binding affinity to ER-α (in words) (human recombinant ER-α): high affinity

SMILES: C[C@]12CC[C@@H]3c4ccc(O)cc4CC[C@H]3[C@@H]1CC[C@@H]2O [Estradiol, 17β-estradiol]
increase in uterine weight [2]: 4.5 fold
effect on production of GM-CSF (GM-CSF): reduced the production of GM-CSF
effect on production of IL-6 (IL-6; co-culture system of Example 8): suppress the production of IL-6

Continued, values first:

pKi (human recombinant ER-β; ER binding assay of Example 14, read-out: ER Binding Assay ER-β (Ki)): < 5.00
SMILES: CCN(CC)CCOc1ccc(-c2c(-c3ccccc3)c(=O)oc3ccccc23)cc1 [L-20, reference compound]

shape of dose response, uterine weight [2]: bell-shaped dose response
increase in uterine weight ([2]; 1 mg/kg dose): up to 50%
SMILES: O=C(c1ccc(OCCN2CCCCC2)cc1)c1c(-c2ccc(O)cc2)sc2cc(O)ccc12 [Raloxifene HCl]

melting point: 171 to 172 °C
SMILES: COc1ccc2c(Cc3ccc(OCCN4CCCCC4)cc3)c(-c3ccccc3)c(=O)oc2c1 [Example 4, 3-Phenyl-4-[4-(2-{piperin-1-yl})ethoxy]-benzyl-7-methoxycoumarin]
